Results from US10138468B2, “Method for differentiation of pluripotent stem cells into multi-competent renal precursors” (Hoffmann-La Roche Inc., priority 2013, dated 2018).
Entries after “also recorded” stand apart in the source; their conditions may differ.

What was measured:
[1] = system: hPSCs-derived Podocytes cells; experiment: Functional response to stressor stimulation: ZO-1 localization by immunocytochemistry and image based high content analysis; assay type: cell-based, human; conditions: podocytes at Day 13, already at Day 1, sustained at D2 and D5, DMEMF12 medium
Description: FIG. 6: Characterization of monolayer differentiated hPSCs-derived Podocytes cells at Day 13. hiPSCs have been differentiated in monolayer conditions and at Day 13 have been tested for functional response to TGF beta (10 ng/ml) stressor stimulation. The expression of the tight junction marker ZO-1 has been tested by immunocytochemistry analysis and its cellular localization by image based high content analysis (HCA).
FIG. 7: Characterization of monolayer differentiated hPSCs-derived Podocytes cells at Day 13. hiPSCs have been differentiated in monolayer conditions and at Day 13 have been tested for functional response to Angiotensin II (AngII) (100 nM) stressor stimulation. The expression of the tight junction marker ZO-1 has been tested by immunocytochemistry analysis and its cellular localization by image based high content analysis (HCA).
The cells were fixed with PBS containing 4% paraformaldehyde for 20 min at room temperature. After three washing with PBS the cells the cells were then blocked with 5% BSA solution (Blocking buffer) for 60 min. When probing for an intracellular antigen, 0.5% Triton-X was included in the blocking buffer. […] Fluorescence was acquired and analyzed by the Operetta® High Content Imaging System (PerkinElmer) followed by computer-based image analysis (ImageJ, Java-based image processing program). […]

[2] = system: hPSCs-derived Podocytes cells; experiment: Pro-inflammatory cytokine response assay (Bio-Plex Pro Cytokine, Chemokine and Growth factor assay); assay type: cell-based, human; conditions: TNFα 1 ng/ml and 5 ng/ml, 24 h, DMEMF12 medium
Description: FIG. 8a: Pro-inflammatory cytokine response assay. hPSCs-derived Podocytes cells at Day 13 upregulate the expression of pro-inflammatory markers such as IL-8 upon stimulation with TNFα (1 ng/ml and 5 ng/ml) after 24 h in DMEMF12 medium Main panel: Quantification graph: concentration in the harvested supernatant (pg/ml) of the mentioned cytokines. Bio-Plex Pro Cytokine, Chemokine and Growth factor assay was used to measure the activation of hPSCs-derived Podocytes cells in response to TNFα.
In response to proinflammatory stimuli Podocytes express specific cytokines including IL-8, Rantes, MIP-1b and MCP1. Bio-Plex Pro™ Cytokine, Chemokine and Growth factor assay (Biorad, M50-0KCAF0Y). After overnight serum starvation hiPS derived podocytes were exposed at two different concentrations of TNFα (1 and 5 ng/ml) for 24 hours. After treatment the supernatants were collected and used to quantify the Cytokine, Chemokine and Growth factor release using Bio-Plex Pro™ Cytokine, Chemokine and Growth factor assay kit (Biorad, M50-0KCAF0Y). The assay was performed following the manufacturer's instruction. To determine whether the differentiation system generates bona fide Podocytes, we challenged the iPS-derived Podocytes with proinflammatory TNFα and analyzed for cytokine and chemokine release.

Angiotensin II [AngII, stressor stimulation (100 nM) of podocytes]
ZO-1 cellular localization (perinuclear translocation of ZO-1 expression) ([1]; AngII 100 nM): remodeling and translocation of the ZO-1 expression form the membrane to the perinuclear zone

TGF beta: stressor stimulation (10 ng/ml) of podocytes
ZO-1 cellular localization (perinuclear translocation of ZO-1 expression) ([1]; TGF beta 10 ng/ml): remodeling and translocation of the ZO-1 expression form the membrane to the perinuclear zone

TNFα
IL-8 concentration in the harvested supernatant [2]: increase of the supernatant concentration; also recorded: significantly upregulated
MCP1 concentration in the harvested supernatant [2]: increase of the supernatant concentration; also recorded: significantly upregulated
MIP1b concentration in the harvested supernatant [2]: increase of the supernatant concentration; also recorded: significantly upregulated
RANTES concentration in the harvested supernatant [2]: increase of the supernatant concentration; also recorded: significantly upregulated
